According to ChEMBL document CHEMBL3352057, “Novel fluorinated pyrrolo[1,2-a]pyrazine-2,6-dione derivatives: synthesis and anticonvulsant evaluation in animal models of epilepsy” (Bioorg Med Chem, 2014):
Active and inactive are the calls of the source. No cut-off for these calls is given here.

Experiments:
Mus musculus [1] = assay: Anticonvulsant activity in albino CF1 mouse assessed as protection against maximal electroshock-induced seizures at 100 mg/kg, ip measured after 0.25 hr; assay type: functional, organism-based; design: dose 100 mg/kg
Mus musculus [2] = assay: Anticonvulsant activity in albino CF1 mouse assessed as protection against maximal electroshock-induced seizures at 100 mg/kg, ip measured after 0.5 hr; assay type: functional, organism-based; design: dose 100 mg/kg
Mus musculus [3] = assay: Anticonvulsant activity in albino CF1 mouse assessed as protection against maximal electroshock-induced seizures at 100 mg/kg, ip measured after 1 hr; assay type: functional, organism-based; design: dose 100 mg/kg
Mus musculus [4] = assay: Anticonvulsant activity in albino CF1 mouse assessed as protection against maximal electroshock-induced seizures at 100 mg/kg, ip measured after 4 hrs; assay type: functional, organism-based; design: dose 100 mg/kg
Mus musculus [5] = assay: Anticonvulsant activity in albino CF1 mouse assessed as protection against subcutaneous metrazol-induced seizures at 100 mg/kg, ip measured after 0.25 hr; assay type: functional, organism-based; design: dose 100 mg/kg
Mus musculus [6] = assay: Anticonvulsant activity in albino CF1 mouse assessed as protection against subcutaneous metrazol-induced seizures at 100 mg/kg, ip measured after 0.5 hr; assay type: functional, organism-based; design: dose 100 mg/kg
Mus musculus [7] = assay: Anticonvulsant activity in albino CF1 mouse assessed as protection against subcutaneous metrazol-induced seizures at 100 mg/kg, ip measured after 1 hr; assay type: functional, organism-based; design: dose 100 mg/kg
Mus musculus [8] = assay: Anticonvulsant activity in albino CF1 mouse assessed as protection against subcutaneous metrazol-induced seizures at 100 mg/kg, ip measured after 4 hrs; assay type: functional, organism-based; design: dose 100 mg/kg
Mus musculus [9] = assay: Neurotoxicity in albino CF1 mouse at 100 mg/kg, ip measured after 0.25 hr; assay type: toxicity, organism-based; design: dose 100 mg/kg, route intraperitoneal; details: in vivo
Mus musculus [10] = assay: Neurotoxicity in albino CF1 mouse at 100 mg/kg, ip measured after 0.5 hr; assay type: toxicity, organism-based; design: dose 100 mg/kg, route intraperitoneal; details: in vivo
Mus musculus [11] = assay: Neurotoxicity in albino CF1 mouse at 100 mg/kg, ip measured after 1 hr; assay type: toxicity, organism-based; design: dose 100 mg/kg, route intraperitoneal; details: in vivo
Mus musculus [12] = assay: Neurotoxicity in albino CF1 mouse at 100 mg/kg, ip measured after 4 hrs; assay type: toxicity, organism-based; design: dose 100 mg/kg, route intraperitoneal; details: in vivo
Mus musculus [13] = assay: Anticonvulsant activity in albino CF1 mouse assessed as protection against 32 mA current-induced seizures at 100 mg/kg, ip measured after 0.25 hr; assay type: functional, organism-based; design: dose 100 mg/kg
Mus musculus [14] = assay: Anticonvulsant activity in albino CF1 mouse assessed as protection against 32 mA current-induced seizures at 100 mg/kg, ip measured after 0.5 hr; assay type: functional, organism-based; design: dose 100 mg/kg
Mus musculus [15] = assay: Anticonvulsant activity in albino CF1 mouse assessed as protection against 32 mA current-induced seizures at 100 mg/kg, ip measured after 1 hr; assay type: functional, organism-based; design: dose 100 mg/kg
Mus musculus [16] = assay: Anticonvulsant activity in albino CF1 mouse assessed as protection against 32 mA current-induced seizures at 100 mg/kg, ip measured after 2 hrs; assay type: functional, organism-based; design: dose 100 mg/kg
Mus musculus [17] = assay: Anticonvulsant activity in albino CF1 mouse assessed as protection against 32 mA current-induced seizures at 100 mg/kg, ip measured after 4 hrs; assay type: functional, organism-based; design: dose 100 mg/kg
Mus musculus [18] = assay: Neurotoxicity in 32 mA current-induced seizure albino CF1 mouse model at 100 mg/kg, ip measured after 0.25 hr; assay type: toxicity, organism-based; design: dose 100 mg/kg, route intraperitoneal; details: in vivo
Mus musculus [19] = assay: Neurotoxicity in 32 mA current-induced seizure albino CF1 mouse model at 100 mg/kg, ip measured after 0.5 hr; assay type: toxicity, organism-based; design: dose 100 mg/kg, route intraperitoneal; details: in vivo
Mus musculus [20] = assay: Neurotoxicity in 32 mA current-induced seizure albino CF1 mouse model at 100 mg/kg, ip measured after 1 hr; assay type: toxicity, organism-based; design: dose 100 mg/kg, route intraperitoneal; details: in vivo
Mus musculus [21] = assay: Neurotoxicity in 32 mA current-induced seizure albino CF1 mouse model at 100 mg/kg, ip measured after 2 hrs; assay type: toxicity, organism-based; design: dose 100 mg/kg, route intraperitoneal; details: in vivo
Mus musculus [22] = assay: Neurotoxicity in 32 mA current-induced seizure albino CF1 mouse model at 100 mg/kg, ip measured after 4 hrs; assay type: toxicity, organism-based; design: dose 100 mg/kg, route intraperitoneal; details: in vivo
Rattus norvegicus [23] = assay: Anticonvulsant activity in Sprague-Dawley rat assessed as protection against maximal electroshock-induced seizures at 30 mg/kg, ip measured after 0.25 hr; assay type: functional, organism-based; design: dose 30 mg/kg
Rattus norvegicus [24] = assay: Anticonvulsant activity in Sprague-Dawley rat assessed as protection against maximal electroshock-induced seizures at 30 mg/kg, ip measured after 0.5 hr; assay type: functional, organism-based; design: dose 30 mg/kg
Rattus norvegicus [25] = assay: Anticonvulsant activity in Sprague-Dawley rat assessed as protection against maximal electroshock-induced seizures at 30 mg/kg, ip measured after 1 hr; assay type: functional, organism-based; design: dose 30 mg/kg
Rattus norvegicus [26] = assay: Anticonvulsant activity in Sprague-Dawley rat assessed as protection against maximal electroshock-induced seizures at 30 mg/kg, ip measured after 2 hrs; assay type: functional, organism-based; design: dose 30 mg/kg
Rattus norvegicus [27] = assay: Anticonvulsant activity in Sprague-Dawley rat assessed as protection against maximal electroshock-induced seizures at 30 mg/kg, ip measured after 4 hrs; assay type: functional, organism-based; design: dose 30 mg/kg
Rattus norvegicus [28] = assay: Neurotoxicity in MES Sprague-Dawley rat model at 30 mg/kg, ip measured after 0.25 hr; assay type: toxicity, organism-based; design: dose 30 mg/kg, route intraperitoneal; details: in vivo
Rattus norvegicus [29] = assay: Neurotoxicity in MES Sprague-Dawley rat model at 30 mg/kg, ip measured after 0.5 hr; assay type: toxicity, organism-based; design: dose 30 mg/kg, route intraperitoneal; details: in vivo
Rattus norvegicus [30] = assay: Neurotoxicity in MES Sprague-Dawley rat model at 30 mg/kg, ip measured after 1 hr; assay type: toxicity, organism-based; design: dose 30 mg/kg, route intraperitoneal; details: in vivo
Rattus norvegicus [31] = assay: Neurotoxicity in MES Sprague-Dawley rat model at 30 mg/kg, ip measured after 2 hrs; assay type: toxicity, organism-based; design: dose 30 mg/kg, route intraperitoneal; details: in vivo
Rattus norvegicus [32] = assay: Neurotoxicity in MES Sprague-Dawley rat model at 30 mg/kg, ip measured after 4 hrs; assay type: toxicity, organism-based; design: dose 30 mg/kg, route intraperitoneal; details: in vivo
Rattus norvegicus [33] = assay: Anticonvulsant activity in Sprague-Dawley rat assessed as protection against maximal electroshock-induced seizures at 30 mg/kg, po measured after 0.25 hr; assay type: functional, organism-based; design: dose 30 mg/kg
Rattus norvegicus [34] = assay: Anticonvulsant activity in Sprague-Dawley rat assessed as protection against maximal electroshock-induced seizures at 30 mg/kg, po measured after 0.5 hr; assay type: functional, organism-based; design: dose 30 mg/kg
Rattus norvegicus [35] = assay: Anticonvulsant activity in Sprague-Dawley rat assessed as protection against maximal electroshock-induced seizures at 30 mg/kg, po measured after 1 hr; assay type: functional, organism-based; design: dose 30 mg/kg
Rattus norvegicus [36] = assay: Anticonvulsant activity in Sprague-Dawley rat assessed as protection against maximal electroshock-induced seizures at 30 mg/kg, po measured after 2 hrs; assay type: functional, organism-based; design: dose 30 mg/kg
Rattus norvegicus [37] = assay: Anticonvulsant activity in Sprague-Dawley rat assessed as protection against maximal electroshock-induced seizures at 30 mg/kg, po measured after 4 hrs; assay type: functional, organism-based; design: dose 30 mg/kg
Rattus norvegicus [38] = assay: Neurotoxicity in MES Sprague-Dawley rat model at 30 mg/kg, po measured after 0.25 hr; assay type: toxicity, organism-based; design: dose 30 mg/kg, route oral; details: in vivo
Rattus norvegicus [39] = assay: Neurotoxicity in MES Sprague-Dawley rat model at 30 mg/kg, po measured after 0.5 hr; assay type: toxicity, organism-based; design: dose 30 mg/kg, route oral; details: in vivo
Rattus norvegicus [40] = assay: Neurotoxicity in MES Sprague-Dawley rat model at 30 mg/kg, po measured after 1 hr; assay type: toxicity, organism-based; design: dose 30 mg/kg, route oral; details: in vivo
Rattus norvegicus [41] = assay: Neurotoxicity in MES Sprague-Dawley rat model at 30 mg/kg, po measured after 2 hrs; assay type: toxicity, organism-based; design: dose 30 mg/kg, route oral; details: in vivo
Rattus norvegicus [42] = assay: Neurotoxicity in MES Sprague-Dawley rat model at 30 mg/kg, po measured after 4 hrs; assay type: toxicity, organism-based; design: dose 30 mg/kg, route oral; details: in vivo

O=C1NC(=O)[C@@H]2CCCCN2[C@H]1c1cccc(C(F)(F)F)c1
Activity (Mus musculus [1]): inactive
Activity (Mus musculus [2]): inactive
Activity (Mus musculus [3]): inactive
Activity (Mus musculus [4]): inactive
Activity (Mus musculus [5]): inactive
Activity (Mus musculus [6]): inactive
Activity (Mus musculus [7]): inactive
Activity (Mus musculus [8]): inactive
Activity (Mus musculus [9]): Non-toxic
Activity (Mus musculus [10]): Non-toxic
Activity (Mus musculus [11]): Non-toxic
Activity (Mus musculus [12]): Non-toxic
Activity (Mus musculus [13]): Active
Activity (Mus musculus [14]): Active
Activity (Mus musculus [15]): inactive
Activity (Mus musculus [16]): inactive
Activity (Mus musculus [17]): inactive
Activity (Mus musculus [18]): Non-toxic
Activity (Mus musculus [19]): Non-toxic
Activity (Mus musculus [20]): Non-toxic
Activity (Mus musculus [21]): Non-toxic
Activity (Mus musculus [22]): Non-toxic
Activity (Rattus norvegicus [23]): inactive
Activity (Rattus norvegicus [24]): inactive
Activity (Rattus norvegicus [25]): inactive
Activity (Rattus norvegicus [26]): inactive
Activity (Rattus norvegicus [27]): inactive
Activity (Rattus norvegicus [28]): Non-toxic
Activity (Rattus norvegicus [29]): Non-toxic
Activity (Rattus norvegicus [30]): Non-toxic
Activity (Rattus norvegicus [31]): Non-toxic
Activity (Rattus norvegicus [32]): Non-toxic

Cl.O=C1NC(=O)[C@@H]2C[C@@H](O)CN2C1c1cccc(C(F)(F)F)c1 (mixture of isomers)
Activity (Mus musculus [2]): Active
Activity (Mus musculus [4]): inactive
Activity (Mus musculus [10]): Toxic
Activity (Mus musculus [12]): Non-toxic
Activity (Mus musculus [14]): Active
Activity (Mus musculus [16]): inactive
Activity (Mus musculus [19]): Toxic
Activity (Mus musculus [21]): Non-toxic
Activity (Rattus norvegicus [33]): inactive
Activity (Rattus norvegicus [34]): inactive
Activity (Rattus norvegicus [35]): inactive
Activity (Rattus norvegicus [36]): inactive
Activity (Rattus norvegicus [37]): inactive
Activity (Rattus norvegicus [38]): Non-toxic
Activity (Rattus norvegicus [39]): Non-toxic
Activity (Rattus norvegicus [40]): Non-toxic
Activity (Rattus norvegicus [41]): Non-toxic
Activity (Rattus norvegicus [42]): Non-toxic
Activity (Rattus norvegicus [23]): inactive
Activity (Rattus norvegicus [24]): inactive
Activity (Rattus norvegicus [25]): inactive
Activity (Rattus norvegicus [26]): inactive
Activity (Rattus norvegicus [27]): inactive
Activity (Rattus norvegicus [28]): Non-toxic
Activity (Rattus norvegicus [29]): Non-toxic
Activity (Rattus norvegicus [30]): Non-toxic
Activity (Rattus norvegicus [31]): Non-toxic
Activity (Rattus norvegicus [32]): Non-toxic

O=C1NC(=O)[C@@H]2CCCN2[C@H]1c1ccc(C(F)(F)F)cc1
Activity (Mus musculus [1]): Active
Activity (Mus musculus [2]): inactive
Activity (Mus musculus [3]): Active
Activity (Mus musculus [4]): inactive
Activity (Mus musculus [5]): Active
Activity (Mus musculus [6]): Active
Activity (Mus musculus [7]): inactive
Activity (Mus musculus [8]): inactive
Activity (Mus musculus [9]): Non-toxic
Activity (Mus musculus [10]): Non-toxic
Activity (Mus musculus [11]): Non-toxic
Activity (Mus musculus [12]): Non-toxic
Activity (Mus musculus [13]): inactive
Activity (Mus musculus [14]): Active
Activity (Mus musculus [15]): inactive
Activity (Mus musculus [16]): inactive
Activity (Mus musculus [17]): inactive
Activity (Mus musculus [18]): Non-toxic
Activity (Mus musculus [19]): Non-toxic
Activity (Mus musculus [20]): Non-toxic
Activity (Mus musculus [21]): Non-toxic
Activity (Mus musculus [22]): Non-toxic
Activity (Rattus norvegicus [23]): inactive
Activity (Rattus norvegicus [24]): inactive
Activity (Rattus norvegicus [25]): inactive
Activity (Rattus norvegicus [26]): inactive
Activity (Rattus norvegicus [27]): inactive
Activity (Rattus norvegicus [28]): Non-toxic
Activity (Rattus norvegicus [29]): Non-toxic
Activity (Rattus norvegicus [30]): Non-toxic
Activity (Rattus norvegicus [31]): Non-toxic
Activity (Rattus norvegicus [32]): Non-toxic
